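Five concentrations, 48 hours, 96-well plates. The concentration for full growth arrest is given as TGI.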 Where a SMILES comes first, the peptide text is derived from it. The star is where a group is joined. Boc = CC(C)(C)OC(=O)*
Key:
Test in all cases: NCI anticancer screen, dose series, 48 h
[1] = test system: 786-0 renal
[2] = test system: HT29 colon
[3] = test system: MCF7 breast
[4] = test system: MDA-MB-231 breast
[5] = test system: NCI-H522 lung
[6] = test system: NCI/ADR-RES ovarian
[7] = test system: OVCAR-4 ovarian
[8] = test system: OVCAR-5 ovarian
[9] = test system: RPMI-8226 leukemia
[10] = test system: SW-620 colon
[11] = test system: TK-10 renal
[12] = test system: NCI-H226 lung

| Structure (SMILES) | TGI [1] | TGI [2] | TGI [3] | TGI [4] | TGI [5] | TGI [6] | TGI [7] | TGI [8] | TGI [9] | TGI [10] | TGI [11] | TGI [12] |
| --- | --- | --- | --- | --- | --- | --- | --- | --- | --- | --- | --- | --- |
| Cn1c(N/N=C/c2ccc(Cl)cc2)nc(-c2ccc(Cl)cc2)c(C#N)c1=O | 29.8 µM | > 100 µM | 67.8 µM | 48.8 µM | 33.6 µM | > 100 µM | 61.7 µM | 51.1 µM | > 100 µM | > 100 µM | 76.3 µM | – |
| O=C(CCCC(=O)N1CC(CCl)c2ccc([N+](=O)[O-])cc21)N1CC(CCl)c2ccc([N+](=O)[O-])cc21 (configuration not stated) | > 100 µM | > 100 µM | > 100 µM | > 100 µM | > 100 µM | – | > 100 µM | > 100 µM | > 100 µM | > 100 µM | > 100 µM | > 100 µM |
| CCCCNC(=S)Nc1nc(C(=O)NNS(=O)(=O)c2ccccc2)cs1 | > 100 µM | – | > 100 µM | 68.8 µM | > 100 µM | > 100 µM | – | > 100 µM | > 100 µM | – | 99.9 µM | – |
| CN(C)Cc1cc(C(=O)/C=C/c2ccc(/C=C/C(=O)c3cc(CN(C)C)c(O)c(CN(C)C)c3)cc2)cc(CN(C)C)c1O | 58.1 µM | 37.7 µM | > 100 µM | 41.1 µM | 40.1 µM | > 100 µM | > 100 µM | 59.8 µM | 65.5 µM | 54.7 µM | > 100 µM | – |
| CN(C)c1ccc(/C=C2\N=C(c3ccccc3)N(c3nc4c(Cl)cc(Cl)cc4s3)C2=O)cc1 | > 100 µM | > 100 µM | > 100 µM | > 100 µM | – | > 100 µM | > 100 µM | > 100 µM | 77.5 µM | > 100 µM | > 100 µM | – |
| O=C(c1ccco1)N(C(=S)N1CCN(c2ccccc2)CC1)c1ccccc1 | > 100 µM | > 100 µM | – | – | > 100 µM | – | > 100 µM | > 100 µM | > 100 µM | > 100 µM | > 100 µM | > 100 µM |
| CC(Nc1cc(Cl)cc(Cl)c1)c1ccncc1 (configuration not stated) | 51.3 µM | 88.8 µM | 34.3 µM | – | 32.6 µM | 63.7 µM | > 100 µM | 32.4 µM | 42.5 µM | 70.5 µM | > 100 µM | 25 µM |
| COc1cc(C(C#N)NNC(=O)c2ccccc2O)ccc1O (configuration not stated) | > 100 µM | > 100 µM | – | – | 28.7 µM | – | > 100 µM | > 100 µM | > 100 µM | > 100 µM | > 100 µM | 38 µM |
| Cc1cc2ccccc2c[n+]1CC(=O)CC([O-])(C(F)(F)F)C(F)(F)F | > 100 µM | > 100 µM | – | > 100 µM | > 100 µM | > 100 µM | > 100 µM | > 100 µM | > 100 µM | > 100 µM | – | > 100 µM |
| CC1=C(N2CC2)C(=O)c2nc3n(c2C1=O)CCC3O (configuration not stated) | 0.967 µM | 3.37 µM | – | – | 0.262 µM | – | 0.269 µM | 3.84 µM | 10.2 µM | 0.726 µM | 0.285 µM | 2.14 µM |
| COC(=O)c1ccc(OCc2ccc3oc(=O)c(-c4ccccc4)nc3c2)cc1 | 66.5 µM | > 100 µM | – | – | > 100 µM | – | > 100 µM | > 100 µM | > 100 µM | > 100 µM | > 100 µM | > 100 µM |
| COc1nc2c(c(=O)n1C)N[C@@H]1[C@@H](O)[C@H](O)CO[C@@H]1N2 | > 100 µM | > 100 µM | > 100 µM | – | > 100 µM | > 100 µM | > 100 µM | > 100 µM | > 100 µM | > 100 µM | > 100 µM | > 100 µM |
| CC(NC(=O)C(NC(=O)OC(C)(C)C)C(C)C)C(=O)NCC(=O)O (stereo not drawn) (Boc-Val-Ala-Gly-OH; configuration not given here) | > 100 µM | > 100 µM | – | – | > 100 µM | > 100 µM | – | > 100 µM | > 100 µM | > 100 µM | > 100 µM | – |
| CCCCCCCCOCC1S(=O)(=O)OCCOS1(=O)=O | > 100 µM | > 100 µM | – | > 100 µM | > 100 µM | > 100 µM | > 100 µM | > 100 µM | > 100 µM | > 100 µM | > 100 µM | > 100 µM |
| Cc1ccc(-n2c(C)nc3c2C(=O)c2ccccc2C3=O)cc1 | > 100 µM | > 100 µM | – | – | > 100 µM | – | > 100 µM | – | – | > 100 µM | > 100 µM | > 100 µM |
| CCCc1ccc(N=Cc2cc(OC)c(OC)c(OC)c2)cc1 | > 100 µM | > 100 µM | – | – | > 100 µM | – | > 100 µM | > 100 µM | > 65.8 µM | > 100 µM | > 100 µM | > 100 µM |
| CC1=C2N3C[C@@H](n4c(=O)n(C)c(=O)n43)C23CCC1n1c(=O)n(C)c(=O)n13 | > 100 µM | > 100 µM | – | – | – | – | > 100 µM | > 100 µM | > 100 µM | 54.8 µM | > 100 µM | > 100 µM |

Reference: PubChem BioAssay (NCI)
